{"source": "patent US7326542B2", "about": "“Compositions and methods for regulating bacterial pathogenesis” (priority 1998, dated 2008)", "key": {"[1]": {"system": "V. harveyi reporter strain BB170 (Sensor 1-, Sensor 2+)", "format": "cell-based, Vibrio harveyi", "description": "Cell-free culture fluids from E. coli, S. typhimurium and V. harveyi strains were tested for the presence of signaling substances that could induce luminescence in the V. harveyi reporter strain BB170 or BB886. […] The microtiter dishes were shaken in a rotary shaker at 175 rpm at 30° C.\nThe cell density was measured by diluting the same aliquots of cells used for measuring luminescence, spreading the dilutions onto solid LM medium, incubating the plates overnight at 30° C., and counting the resulting colonies the following day. […] Cell-free culture supernatants from V. harveyi or S. typhimurium strains were added to a final concentration of 10% (v/v) at the time of the first measurement. In control experiments, 10% (v/v) of AB medium, LB medium or LB medium containing 0.5% glucose was added instead of cell-free culture fluids."}, "[2]": {"system": "V. harveyi reporter strain BB886 (Sensor 1+, Sensor 2-)", "assay": "V. harveyi BB886 luminescence bioassay (AI-1 / Signaling System 1)", "format": "cell-based, Vibrio harveyi", "settings": "non self-stimulating sensor-1+, sensor-2- mutant (BB886)", "description": "Assay for production of signaling compounds. Cell-free culture fluids from E. coli, S. typhimurium and V. harveyi strains were tested for the presence of signaling substances that could induce luminescence in the V. harveyi reporter strain BB170 or BB886. In the assays, 10 1 of cell-free culture fluids from E. coli AB1157, E. coli DH5, and S. typhimurium LT2 strains grown and harvested as described above were added to 96-well microtiter dishes. The V. harveyi reporter strain BB170 or BB886 was grown for 16 h at 30° C. with aeration in AB medium, diluted 1:5000 into fresh AB medium, and 90 1 of the diluted cells were added to the wells containing the E. coli and S. typhimurium cell-free culture fluids. Positive control wells contained 10 1 of cell-free culture fluid from strain V. harveyi BB152 (Autoinducer-1^−, Autoinducer-2^+) or V. harveyi BB 120 (Autoinducer-1^+, Autoinducer-2^+). Negative control wells contained 10 1 of sterile growth medium. […] Every hour, light production was measured using a Wallac Model 1450 Microbeta Plus liquid scintillation counter in the chemiluminescence mode. The V. harveyi cell density was measured by diluting the same aliquots of cells used for measuring luminescence, spreading the dilutions onto solid LM medium (Bassler et al., 1993, supra), incubating the plates overnight at 30C., and counting the resulting colonies the following day. […]"}, "[3]": {"system": "V. harveyi luxN, luxS double mutant reporter strain", "assay": "V. harveyi luxN, luxS double mutant reporter strain luminescence assay", "format": "cell-based, Vibrio harveyi", "settings": "AI-1 from MM30 and AI-2 from BB152 culture fluids", "description": "Verification that the luxN, luxS Double Mutant Responds to AI-2. […] This was verified in a luminescence assay for response to V. harveyi AI-1 and AI-2. V. harveyi strain MM30 (luxS::Tn5) which is phenotypically AI-1^+, AI-2^−, and V. harveyi strain BB152 (luxM::Tn5) which is phenotypically AI-1^−, AI-2^+ were used as the sources of AI-1 and AI-2 respectively. The AI-1 and AI-2 present in culture fluids of these strains was tested for stimulation of light production of the V. harveyi luxN, luxS double mutant reporter strain. In this assay, autoinducer preparations from MM30, BB152 or sterile medium controls were added to the wells of microtiter plates, followed by the addition of the V. harveyi reporter strain. The resulting light production was monitored using a liquid scintillation counter in the chemiluminescence mode. Maximal stimulation of light production in the V. harveyi luxN, luxS reporter strain was compared to that produced by the Sensor 1^+, Sensor 2^− V. harveyi strain BB886 and the Sensor 1^−, Sensor 2^+ V. harveyi strain BB170. These two V. harveyi strains are routinely used in this assay as reporters of AI-1 and AI-2 activity respectively."}, "[4]": {"system": "rck::MudJ fusion in S. typhimurium (sdiA+ and sdiA-)", "assay": "SdiA regulated rck::MudJ fusion, galactosidase", "format": "cell-based", "settings": "addition of AI-2 from E. coli or S. typhimurium, 2 h", "description": "For ftsQ regulation in E. coli, the plasmids pMS207 and pMS209 were transformed into E. coli strain MC4100 (Silhavy et al., 1984, supra), and the transformants were grown overnight in LB containing 100 mg/L ampicillin at 30° C. with aeration. For rck regulation, S. typhimurium strains BA1105 (rck::MudJ) and BA1305 (rck::MudJ sdiA) were grown overnight in LB containing 100 mg/L kanamycin at 30° C. with aeration. The overnight cultures were diluted 20-fold into fresh medium and grown for an additional 4.5 h. At this time, each culture was divided into five identical aliquots and 10% (v/v) of one of the following was added to each aliquot: LB, 0.4 M NaCl, […] osmotic shock fluids from S. typhimurium LT2, E. coli 0157 or E. coli strain DH5 (negative control). The osmotic shock fluids were prepared as described above, following pre-growth of the S. typhimurium LT2 and E. coli in LB containing 0.5% glucose for 6 h. The cell suspensions were incubated at 30° C. for 2 h, after which standard-galactosidase reactions were performed on the samples (Miller, A Short Course in Bacterial Genetics, Cold Spring Harbor Laboratory Press, 1992)."}, "[5]": {"assay": "Stability of the signaling activity (acid, base, heat, storage)", "format": "physicochemical"}, "[6]": {"system": "ftsQ1p2p-lacZ fusion in E. coli MC4100/pMS207", "assay": "SdiA regulated ftsQ1p2p-lacZ reporter, galactosidase", "format": "cell-based", "settings": "10% (v/v) 0.4 M NaCl osmotic shock fluids containing AI-2 activity, 2 h", "from_the_text": "Analysis of the effect of autoinducer on SdiA regulated gene expression. A sequence that includes the ftsQ1p and ftsQ2p promoters (Wang et al., 1991, supra) was amplified from E. coli MG1655 chromosomal DNA using the following primers: ftsQ1p, 5′-[…]-3′ (SEQ ID NO: 19); ftsQ2p, 5′-[…]-3′ (SEQ ID NO: 20). The amplified product contained both the ftsQ promoters and the first 14 codons of the ftsQ gene flanked by BamHI and Bg1II sites. The ftsQ1p2p PCR product was cloned into the BamHI site of vector pMLB 1034 (Silhavy et al., Experiments with Gene Fusions, Cold Spring Harbor Press, 1984) to generate a lacZ fusion that contained the promoters, ribosome binding site, and initiation codon of ftsQ. A correctly oriented clone, pMS207, and a clone containing the ftsQ1p2p insert in the opposite orientation, pMS209, were chosen for further analysis. Both inserts were sequenced to ensure that no errors were introduced during the PCR reaction.\nFor ftsQ regulation in E. coli, the plasmids pMS207 and pMS209 were transformed into E. coli strain MC4100 (Silhavy et al., 1984, supra), and the transformants were grown overnight in LB containing 100 mg/L ampicillin at 30° C. with aeration. For rck regulation, S. typhimurium strains BA1105 (rck::MudJ) and BA1305 (rck::MudJ sdiA) were grown overnight in LB containing 100 mg/L kanamycin at 30° C. with aeration. […]"}}, "note": "Where two headings read alike, the source gives them in different places."}
{"smiles": "O=C(O)CCC(=O)C(=O)O", "note": "[-ketoglutarate]", "values": [{"measurement": "activity of candidates for the signal in inducing luminescence", "setting": "[1]", "result": "None of these compounds has activity"}]}
{"smiles": "C[C@@H](O)CC(=O)N[C@H]1CCOC1=O", "note": "[AI-1, N-(3-hydroxybutanoyl)-L-homoserine lactone, reference compound]", "values": [{"measurement": "lowest concentration the assay was sensitive to", "setting": "[2]", "result": 100, "unit": "nM"}, {"measurement": "light production in response to exogenous autoinducer", "setting": "[3]", "result": "not"}]}
{"smiles": "CC(=O)C(=O)C(O)CO", "note": "(stereo not drawn) [AI-2, 4,5-dihydroxy-2,3-pentanedione]", "values": [{"measurement": "change in galactosidase production of rck::MudJ", "setting": "[4]", "result": "No change"}, {"measurement": "light production in response to exogenous autoinducer", "setting": "[3]", "result": "stimulated to produce light"}, {"measurement": "acid and base stability of the activity", "setting": "[5]", "result": "acid stable and base labile"}, {"measurement": "heat resistance of the activity", "setting": "[5]", "result": "heat resistant to about 80 but not 100 °C"}, {"measurement": "acid and base stability of the activity", "setting": "[5]; listed as signaling activity", "result": "acid stabile and base labile"}, {"measurement": "heat resistance of the activity", "setting": "[5]; listed as signaling activity", "result": "heat resistant to 80 but not 100 °C"}, {"measurement": "acid and base stability of the activity", "setting": "[5]; listed as signaling compound", "result": "acid stable and base labile"}, {"measurement": "heat resistance of the activity", "setting": "[5]; listed as signaling compound", "result": "heat resistant to 80 °C but not 100 °C"}, {"measurement": "change of galactosidase activity of ftsQ1p2p-lacZ fusion", "setting": "[6]", "result": "did not change"}, {"measurement": "stimulation in light production by AI-2 produced in vitro", "setting": "[1]; dialyzed LuxS- cell extract + SAM + LuxS protein, 60 min, material with MW<5000", "result": "over 500 fold"}]}
{"smiles": "CC(=O)O", "note": "[acetate]", "values": [{"measurement": "activity of candidates for the signal in inducing luminescence", "setting": "[1]", "result": "None of these compounds has activity"}]}
{"smiles": "N[C@H]1CCOC1=O", "note": "[homoserine lactone]", "values": [{"measurement": "activity of candidates for the signal in inducing luminescence", "setting": "[1]", "result": "None of these compounds has activity"}]}
